“Also recorded” adds a separate entry of the source.
Experiments:
SKOV-3 cells = experiment: MTS cell viability assay, parental/wild-type SKOV-3 cells; assay type: cell-based, Human; details: 24 h; paclitaxel 6.25, 12.5 or 25 nM; cisplatin 40 or 80 μM
Experimental: (§1) Cell growth and viability of cell lines (complete medium, 24 h incubation) was determined by the CellTiter 96® AQueous One Solution Assay (Promega Corp, Madison, Wis.) following the manufacturer's recommendations with modifications (Lange T S et al., 2008 PLOS One, 3(5):e2303). Experiments are expressed as the mean of triplicate determinations (X±SD) of a representative experiment in OD (cell growth) or % of absorbance by drug-treated versus untreated cells [=100%] (cell viability). Cisplatin (CDDP), paclitaxel, doxorubicin and camptothecin (CPT) were purchased from (Sigma Aldrich, St. Louis, Mo.).
(§2) To analyze the potential biological relevance of elevated HE4 production for ovarian cancer cells the efficacy of commonly used anticancer drugs was examined in a viability assay (FIG. 5). SKOV-3 clones or parental cells were treated with cisplatin, paclitaxel, doxorubicin, or camptothecin for 24 h in various concentrations as indicated and the cytotoxicity evaluated.

[1] = test system: HE4 overexpressing SKOV-3 clones HE4C1, -C3, -C7; experiment: MTS cell viability assay, HE4 overexpressing SKOV-3 clones; assay type: cell-based, Human; details: for response of HE4 overexpressing SKOV-3 clones to drug treatment (viability, words): 24 h, clones HE4C1, -C3, -C7, compared to parental SKOV-3
Experimental: An HE4 overexpressing vector for stable expression was engineered by inserting a coding sequence of human WAP four-disulfide core domain 2 (WFDC2) cDNA into a multiple cloning site of an eukaryotic expression vector, pCMV6-entry (Origene, Rockville, Md.). Transfection of the constructs in SKOV-3 cells was performed using Lipofectamine 2000 (Invitrogen, Carlsbad, Calif.) according to the manufacturer's instructions. Stably transfected cells were selected by resistance to G-418 (500 μg/ml) (Research Products International, Mount Prospect, Ill.), applied 48 h after transfection and continued during cell culture. G-418 resistant cells were resuspended (density 5 cells/ml) in complete medium/G-418 and seeded as 200 μl/well on a 96 well cell culture plate (Corning, New York, N.Y.). Cells growing from single colonies (cloned; stable transfection) were isolated.
as §1, §2

HE4 [2] = experiment: HE4 levels in SKOV-3 cell lysates and media by sandwich ELISA; assay type: cell-based, Human; details: cytotoxic agents, 24 hrs, serum free DMEM; versus untreated controls
Experimental: Various agents were examined by RT-PCR or by a sandwich ELISA. […] HE4 levels in cell lysates and media were evaluated by a sandwich ELISA.
Cells were grown for 24 h in 100 mm cell culture dishes (Corning, New York, N.Y.), supernatant collected and lysates of washed and scraped cells prepared as described previously (Lange T S et al., 2007Chem Biol Drug Design, 70:302-10). Total protein of lysates was quantitated (BioRad protein estimation kit, Hercules, Calif.), and HE4 levels were determined using the HE4 EIA assay (Fujirebio Diagnostics, Malvern, Pa.), a solid-phase, non-competitive immunoassay using two mouse monoclonal antibodies, directed against two epitopes in the C-WFDC domain. Calibration curves were used to measure HE4 concentrations in both cell lysates and culture media allowing for the calculation of production and secretion of HE4 in pmol/g total cellular protein.
FIG. 15 is a bar chart showing that treatment with growth factors and cytokines affect the HE4 levels in ovarian cancer cells. SKOV-3 cells (1 million each) were seeded in 100 mm dishes and incubated overnight. The cells were treated with an array of factors (IL-6, Insulin, TNFa, EGF) and incubated for another 6 hours. The media was collected and cells were lysed using the cell lysis buffer. The HE4 content in the media or in the cell-lysate was examined by a HE4 sandwich ELISA kit.

[3] = test system: HE4 overexpressing clone-1 xenograft; experiment: Cisplatin response and Kaplan-Meier analysis of animals xenografted with HE4 overexpressing clones; assay type: in vivo, nude mice; details: cisplatin treated, within 14 days
Experimental: To ascertain the role of HE4 in the progression of ovarian cancer, the xenografts of stable HE4 overexpressing (pCMV6-HE4) clones, SKOV-3 (wild type) and the null vector clones (pCMV6) cells were raised in nude mice (strain 088, Nu/Nu). The tumor size was measured weekly.
The survival rate, tumor size, and the cisplatin or vehicle treatment response of animals xenografted with HE4 overexpressing clone-1, parental SKOV-3, and null vector clones was determined. […] Therefore, HE4 overexpression imparted chemoresistance against cisplatin treatment in animals.

HE4 [4] = experiment: HE4 secretion levels in xenografted animals by EIA ELISA; assay type: in vivo, nude mice; details: cisplatin 5 mg/kg bwt
Experimental: Because HE4 is a secretory protein, the secretion levels of HE4 were measured in animals by an EIA ELISA (Fujirebio Inc).

PI-3K = experiment: In vitro immunoprecipitation lipid kinase (PIP-3) assay; assay type: cell-based, Human; details: HE4 overexpressing clones, Cisplatin treatment
Experimental: FIG. 18 is a series of photographs and a schematic illustrating that HE4 regulates EGFR/PI-3K signaling in ovarian cancer cells. […] (C) Mechanistic model of HE4 overexpression induced chemoresistance against Cisplatin via activation of EGFR and PI-3K and its signaling product PIP-3.
HE4 over-expression causes deactivation of pro-survival mitochondrial proteins in SKOV-3 cells. Ovarian cancer cells (SKOV-3) (1 million) were seeded in petri dishes and allowed to adhere overnight in DMEM media supplemented with 10% Fetal Bovine serum without antibiotic. In a separate tube, HE4 cDNA was complexed with lipofectamine (Invitrogen) for 1 min-2 hrs in Optimem media (Invitrogen). HE4 cDNA Lipofectamine complex dissolved in Optimem media were added to the cells. Lipofectamine and no drug were used as control. At different time points (4 hrs, 9 hrs and 24 hr), cells were collected and lysed using lysis buffer. […] Effect of HE4 activation on PIP2-PIP3 conversion was assessed by lipid kinase assay (Yano N. et al. Biochem. J. (2009) 423 (129-143).
A panel of stable HE4 overexpressing ovarian cancer SKOV-3 cell lines were developed by incorporation of pCMV6-HE4 vector. […] The cell viability was measured by MTS assay. Basal reactive oxygen species (ROS) production were measured by FACS analysis. In vitro Phosphoinositide-3-kinase (PI-3K) activity was measured by an immuno-precipitation PIP-3 assay. […]

DNA = experiment: ICP-MS analysis of Cisplatin binding to DNA in cells; assay type: cell-based, Human; details: HE4+ clones versus parental SKOV-3 cells
Experimental: A panel of stable HE4 overexpressing ovarian cancer SKOV-3 cell lines were developed by incorporation of pCMV6-HE4 vector. Inducible HE4 overexpression was achieved by pTet-Off vector (VP 16 vector). The cell viability was measured by MTS assay. Basal reactive oxygen species (ROS) production were measured by FACS analysis. In vitro Phosphoinositide-3-kinase (PI-3K) activity was measured by an immuno-precipitation PIP-3 assay. An Inductively Coupled Plasma-Mass spectrometry (IPC-MS) analysis was carried out to estimate Cisplatin binding to DNA in cells. Mitochondria, rough ER and myelin figures were examined by Electron microscopy (EM). The screening of in-house library of compounds was carried out by MTS assay.

N.N.[Cl][Pt][Cl] [cisplatin]
effect on viability of wild-type SKOV-3 cells (SKOV-3 cells): reduced the viability of wild-type SKOV-3 cells drastically | response of HE4 overexpressing SKOV-3 clones to drug treatment (viability, words) [1]: two clones did not respond; also recorded: significantly reduced response | response of HE4 overexpressing SKOV-3 clones to drug treatment (viability, words) ([1]; listed as Cisplatin): significantly reduced response | sensitivity of clone HE4C1 to cisplatin ([1]; HE4C1, only at 80 μM): minor sensitivity | fold chemoresistance against cisplatin ([1]; HE4C1 compared to parental and null vector cells): 2-4 fold | fold lower response / loss of efficacy / resistance of HE4 overexpressing SKOV-3 clones compared to parental SKOV-3 ([1]; cell viability assay): 20 fold | effect on HE4 levels in SKOV-3 (HE4 [2]): suppressed HE4 levels | animals that reached terminal tumor size (≥14 mm) [3]: ~60% | HE4 levels in cisplatin treated groups versus vehicle treated animals (HE4 [4]): did not differ significantly; also recorded: not significantly different | effect on PIP-3 synthesis (PI-3K): further enhancement of PIP-3 synthesis | Cisplatin binding to DNA (DNA): reduced Cisplatin binding to DNA
